This is an account of results in ChEMBL document CHEMBL1155107, “Oxidative transformation of 2-acetylaminofluorene by a chemical model for cytochrome P450: A water-insoluble porphyrin and tert-butyl hydroperoxide” (Bioorg Med Chem, 2008).

This series relates to Salmonella typhimurium. Nature of the series: Toxicity in Salmonella Typhimurium TA1538 assessed as induction of mutagenicity using cytochrome P450 chemical model after 44 hrs by Ames test. In kind it is organism-based. The conditions noted are these: salmonella enterica subsp. enterica serovar typhimurium. Background: In the Ames test, an excess of revertant colonies over the control signals mutagenicity.

For the molecule `CC(=O)Nc1ccc2c(c1)Cc1ccccc1-2` [2-ACETYLAMINOFLUORENE], the Activity entry was “Dose-dependent effect”.
